In patent US20020091086A1, “Peptides that block viral infectivity and methods of use thereof” (priority 1999, published 2002):
Peptide text beside a SMILES is read from it.

Experiments:
[1] = tested on: HIV-1 isolate p7227 (high AZT); assay: resistant HIV-1 isolates in PBMC, p24 ELISA; assay type: cell-based; conditions: GPG 100 μM, 14 days post infection
various cell lines = assay: ratio of CC50/IC50 in vitro; assay type: cell-based
Method: The in vitro 50% cytotoxic concentrations (CC50) of various cell lines was also assessed. Accordingly, different concentrations of GPG-NH2, up to 40 mM, was supplemented into the medium culture of T-cell lines HUT78, H9, CEM-SS, MT-2 and (non) induced ACH-2, as well as, the macrophage derived cell lines […], THP-1 and (non) induced U-1 cells. After 3 days of incubation, the number of cells were counted.

HIV-1 SF-2 virus strain = assay: stability in human blood and plasma by HIV-1 replication assay in HUT78 cells; assay type: in vitro ADME; conditions: incubated 1, 2 and 4 hours at 37° C. in human blood or plasma; final 20 μM or 100 μM; p24 day 7 and 14
Method: This example describes several studies that were performed to access the stability of small peptides in human blood and plasma. Accordingly, human blood was taken freshly and treated with EDTA. Plasma was separated by centrifuging at 2,500 rpm for 20 minutes. GPG-NH2 was added into blood or plasma at concentrations of 10 mM or 50 mM followed by incubation in 37° C. for 1, 2 and 4 hours, respectively. […] After incubation in 37° C., the GPG-NH2 containing blood was centrifuged at 2,500 rpm for 20 minutes to isolate plasma. Some of the plasma samples were treated with CaCl2 at concentration of 5 mM in 37° C. for 10 minutes followed by centrifuging at 13,000 rpm for 30 minutes and the supernatant are referred to as CaCl2 treated plasma. Then all the GPG-NH2 containing plasma samples were diluted in RPMI medium to give the final concentrations 20 μM or 100 μM of GPG-NH2 (500 fold dilutions) and were then used in HIV-1 replication assays.
The replication assays were performed on HUT78 cells and the HIV-1 SF-2 virus strain was used. Briefly, approximately 200,000 cells were resuspended in the diluted GPG-amide containing medium, plasma, or plasma from blood. The GPG-NH2 containing medium, plasma, or plasma from blood was incubated with the cells for either 1 hr, 2 hr, or 4 hr at 37° C. Subsequently, SF-2 virus was added at 25 TCID50. […]

[2] = stability in human plasma by thin layer chromatography; assay type: in vitro ADME; conditions: 37° C.; 30 minutes, two hours, eight hours
Method: The stability of GPG-NH2 in human plasma was also assessed chemically by thin layer chromatography (TLC). (See FIG. 7). In this experiment, ^14C GPG-NH2 was incubated with human plasma at 37° C. for 30 minutes, two hours, or eight hours and then the proteins were separated by TLC and were visualized by exposure of the chromatograph to autoradiography film. As shown in FIG. 7 (lanes Hp0, Hp0.5, Hp2, and Hp8), a slight shift in mobility of the small peptide was observed. […] Mass-spectrometry analysis (electrospray analysis) of the TLC spots verified that all spots, including the spot with increased mobility, were GPG-NH2.

HIV-1 strain HTLV-IIIB = conditions: passaged in serial dilutions for more than six months

With `NCC(=O)N1CCC[C@H]1C(=O)NCC(N)=O` [GPG-NH2, glycyl-prolyl-glycine amide] (H-Gly-Pro-Gly-NH2) the “% reduction” value [1] was “(100%)”, the “HIV-1 p24” value [1] was under 500 pg/mL and the “ratio of CC50/IC50 in vitro” value (various cell lines) was > 10^4. The “ability to inhibit HIV-1 after incubation in medium, plasma or blood” value (HIV-1 SF-2 virus strain) was “No significant difference”, the “TLC mobility after incubation in human plasma” value [2] was “no further change in mobility was observed at up to 8 hours” and the “development of resistance in vitro” value (HIV-1 strain HTLV-IIIB) was “without overt signs of development of resistance”.
